According to US4837371A, “Process for concentration of an aqueous solution of amino acid” (Mitsui Toatsu Chemicals, Inc., priority 1986, dated 1989):
Where two headings read alike, the source gives them in different places.

What was measured:
[1] = cited from earlier work; for solubility change with alcohol (in words): alcohol present in aqueous solution; for solubility in water (in words): at the isoelectric point
[2] = acid dissociation constant; listed as tryptophane; cited from earlier work
[3] = solubility of L-tryptophan in an ethanol-aqueous solution (Referential Example 1); assay type: physicochemical; details: pH 5.89, 20° to 75° C.
Procedure: The pH of the aqueous solution was adjusted to the isoelectric point (5.89), and the aqueous solution was prepared from distilled water and reagent grade ethanol. In FIG. 1, letters a, b, c and d represent the solubility curves of L-tryptophan for the ethanol solution of different compositions shown below. […]
a: Ethanol: 0 Distilled water: 100 (parts by volume) b: Ethanol: 30 Distilled water: 70 c: Ethanol: 50 Distilled water: 50 d: Ethanol: 70 Distilled water: 30

Row | Structure (SMILES) | solubility change with alcohol (in words) [1] | solubility in water (in words) [1] | further results
1 | N[C@@H](Cc1ccccc1)C(=O)O [phenylalanine] | increase in solubility |  | 
2 | C[C@H](N)C(=O)O [alanine] | decrease in solubility |  | 
3 | CSCC[C@H](N)C(=O)O [methionine] |  | sparingly soluble in water at the isoelectric point | 
4 | N[C@@H](Cc1c[nH]c2ccccc12)C(=O)O [L-tryptophan] | increase in solubility | sparingly soluble in water at the isoelectric point | pK1 [2]: 2.3; solubility, temperature dependence [3]: increases as the temperature goes up from 20 °C to 75 °C; solubility by adjustment of pH only ([1]; pH not less than 11 or not more than 2): 8 to 10 wt. %; increase of solubility on raising solution temperature ([1]; solution temperature raised to 60° C.): ≤ 2%; solubility in water (in words) ([1]; listed as tryptophane): very low solubility in water
5 | NCCCC[C@H](N)C(=O)O [lysine] |  | highly soluble in water | 
6 | N[C@@H](CSSC[C@H](N)C(=O)O)C(=O)O [cystine] |  | sparingly soluble in water at the isoelectric point | 
